From ChEMBL document CHEMBL1201862, “PubChem BioAssay data set” (2004)
Calls of active or inactive are those of the source. Rule as the data show it: actives have a measured IC50 and inactives only a lower limit.

Assays:
Format in all cases: functional
[1] = biological target: T1, Sentrin-specific protease 6 (Homo sapiens, UniProt Q9GZR1);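 also: Luminescence-based dose-response confirmatory assay of SENP6 inhibition, following up an ultra-high-throughput screen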
T1 sequence (Q9GZR1 whole entry): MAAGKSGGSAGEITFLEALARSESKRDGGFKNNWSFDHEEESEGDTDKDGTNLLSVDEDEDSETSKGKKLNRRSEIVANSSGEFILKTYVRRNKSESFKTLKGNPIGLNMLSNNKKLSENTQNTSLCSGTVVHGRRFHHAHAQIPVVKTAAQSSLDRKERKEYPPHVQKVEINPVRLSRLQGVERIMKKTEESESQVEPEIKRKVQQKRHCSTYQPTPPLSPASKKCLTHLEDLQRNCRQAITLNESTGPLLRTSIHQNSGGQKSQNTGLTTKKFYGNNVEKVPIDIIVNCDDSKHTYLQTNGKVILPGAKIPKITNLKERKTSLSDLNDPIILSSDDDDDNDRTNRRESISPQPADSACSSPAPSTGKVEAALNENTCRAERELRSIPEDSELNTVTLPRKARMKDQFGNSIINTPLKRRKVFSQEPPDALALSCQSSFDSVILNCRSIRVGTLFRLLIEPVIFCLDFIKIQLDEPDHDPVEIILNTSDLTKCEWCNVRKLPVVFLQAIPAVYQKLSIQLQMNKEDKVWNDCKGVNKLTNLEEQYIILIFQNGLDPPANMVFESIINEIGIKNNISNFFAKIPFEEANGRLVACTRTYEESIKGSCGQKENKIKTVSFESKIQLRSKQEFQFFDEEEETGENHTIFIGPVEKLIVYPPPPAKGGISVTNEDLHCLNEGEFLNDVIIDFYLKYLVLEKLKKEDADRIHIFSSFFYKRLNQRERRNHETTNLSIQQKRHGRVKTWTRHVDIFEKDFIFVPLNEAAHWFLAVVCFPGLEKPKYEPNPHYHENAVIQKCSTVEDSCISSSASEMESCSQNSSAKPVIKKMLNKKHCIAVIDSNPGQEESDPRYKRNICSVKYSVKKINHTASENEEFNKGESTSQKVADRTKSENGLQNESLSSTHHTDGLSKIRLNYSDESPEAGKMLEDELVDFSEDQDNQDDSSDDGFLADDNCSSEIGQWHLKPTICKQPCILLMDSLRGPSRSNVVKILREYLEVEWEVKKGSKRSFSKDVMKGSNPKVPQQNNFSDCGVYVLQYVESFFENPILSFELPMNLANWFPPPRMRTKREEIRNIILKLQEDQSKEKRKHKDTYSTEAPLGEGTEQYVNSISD

[2] = biological target: T2, Sentrin-specific protease 8 (Homo sapiens, UniProt Q96LD8);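 also: luminescence read-out of SENP8 inhibition, dose-response confirmation following an ultra-high-throughput screen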
T2 sequence (Q96LD8 whole entry): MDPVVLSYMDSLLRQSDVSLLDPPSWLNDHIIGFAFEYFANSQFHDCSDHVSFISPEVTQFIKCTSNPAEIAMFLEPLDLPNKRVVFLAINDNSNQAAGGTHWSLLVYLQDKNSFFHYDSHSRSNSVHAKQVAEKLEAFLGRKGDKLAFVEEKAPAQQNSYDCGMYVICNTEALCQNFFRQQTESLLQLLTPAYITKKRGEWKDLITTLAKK

[3] = biological target: T3, Sentrin-specific protease 7 (Homo sapiens, UniProt Q9BQF6);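 also: Luminescence-based dose-response confirmation of ultra-high-throughput screening hits, measuring inhibition of SENP7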
T3 sequence (Q9BQF6 whole entry): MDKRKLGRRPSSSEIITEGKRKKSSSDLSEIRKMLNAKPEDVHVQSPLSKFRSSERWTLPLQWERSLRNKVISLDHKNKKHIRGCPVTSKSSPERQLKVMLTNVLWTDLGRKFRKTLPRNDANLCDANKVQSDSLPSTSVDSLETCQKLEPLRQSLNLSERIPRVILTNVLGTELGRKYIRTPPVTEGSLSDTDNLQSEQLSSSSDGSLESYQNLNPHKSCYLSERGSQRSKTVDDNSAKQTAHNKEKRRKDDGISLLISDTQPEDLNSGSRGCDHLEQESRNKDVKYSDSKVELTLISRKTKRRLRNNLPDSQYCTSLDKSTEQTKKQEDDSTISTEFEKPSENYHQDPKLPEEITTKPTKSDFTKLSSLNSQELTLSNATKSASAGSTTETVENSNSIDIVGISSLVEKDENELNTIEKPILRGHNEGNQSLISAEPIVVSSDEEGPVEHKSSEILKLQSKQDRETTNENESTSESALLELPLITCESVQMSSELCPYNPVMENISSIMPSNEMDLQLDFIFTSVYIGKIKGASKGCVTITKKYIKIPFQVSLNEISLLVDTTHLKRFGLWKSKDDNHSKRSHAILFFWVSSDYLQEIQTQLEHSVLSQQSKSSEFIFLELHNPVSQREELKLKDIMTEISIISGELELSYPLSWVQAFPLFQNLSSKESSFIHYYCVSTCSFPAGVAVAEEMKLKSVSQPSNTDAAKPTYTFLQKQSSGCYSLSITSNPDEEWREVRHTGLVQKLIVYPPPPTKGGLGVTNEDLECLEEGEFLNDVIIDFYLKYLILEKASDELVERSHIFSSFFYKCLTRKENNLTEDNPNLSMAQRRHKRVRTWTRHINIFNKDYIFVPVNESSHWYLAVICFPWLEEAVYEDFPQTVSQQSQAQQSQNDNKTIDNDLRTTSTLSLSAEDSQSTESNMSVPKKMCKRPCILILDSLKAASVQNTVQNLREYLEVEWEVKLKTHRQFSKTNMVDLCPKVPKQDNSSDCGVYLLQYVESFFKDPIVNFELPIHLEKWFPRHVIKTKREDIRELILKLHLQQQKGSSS

Caspase-3 = biological target: T4, Caspase-3 (Homo sapiens, UniProt P42574);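 also: Dose-response selectivity test against caspase-3 for candidate inhibitors of sentrin-specific proteases (SENPs)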
T4 sequence (P42574 whole entry): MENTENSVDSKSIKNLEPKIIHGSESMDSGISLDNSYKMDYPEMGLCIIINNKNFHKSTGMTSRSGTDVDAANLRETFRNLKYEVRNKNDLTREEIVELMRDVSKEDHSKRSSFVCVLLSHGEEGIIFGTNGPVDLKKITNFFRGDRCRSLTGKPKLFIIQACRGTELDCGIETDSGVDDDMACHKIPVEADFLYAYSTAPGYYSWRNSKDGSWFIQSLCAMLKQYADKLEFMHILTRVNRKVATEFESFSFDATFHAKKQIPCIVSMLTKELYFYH

Structure (SMILES)	IC50 [1]	IC50 [2]	IC50 [3]	IC50 (Caspase-3)
CCOC(=O)c1c(NS(=O)(=O)c2ccccc2)n(CCCOC)c2nc3ccccc3nc12	0.596 µM (active)	1.91 µM (active)	1.02 µM (active)	10 µM (active)
O=C(COC(=O)c1ccc([N+](=O)[O-])s1)NCCc1ccccc1	4.79 µM (active)	4.74 µM (active)	7.56 µM (active)	9.7 µM (active)
